Measurements: PubChem BioAssay (NCI)
Values joined by “and” are separate entries in the source; they are usually repeats but may differ in a detail not shown here. Equal values may be shown once.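 Step 1: Grow cells in 96-well plates. Step 2: Expose to compound for 48 hours at 5 concentrations. Step 3: Interpolate endpoints linearly; if unreached, use highest concentration. GI50 is the concentration that inhibits growth by half. The concentration for full growth arrest is given as TGI.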

Columns and labels:
Assay in all cases: DTP human tumour cell line panel, 48 h
DMS 114 small cell lung = test system: DMS 114 small cell lung
KM20L2 colon = test system: KM20L2 colon
M19-MEL melanoma = test system: M19-MEL melanoma
MDA-MB-435 = test system: MDA-MB-435
MDA-N = test system: MDA-N
PC-3 prostate = test system: PC-3 prostate
T-47D breast = test system: T-47D breast
SNB-78 CNS = test system: SNB-78 CNS
RXF-631 renal = test system: RXF-631 renal

SMILES	TGI (KM20L2 colon)	GI50 (MDA-MB-435) [µM]	TGI (MDA-MB-435) [µM]	GI50 (PC-3 prostate) [µM]	TGI (PC-3 prostate) [µM]	GI50 (T-47D breast) [µM]	TGI (T-47D breast) [µM]	further results
C[CH2][Sn]([CH2]C)([O]C(=O)c1ccc(OC)c(OC)c1OC)[O]C(=O)c1ccc(OC)c(OC)c1OC	> 100 µM	> 100	> 100	> 100	> 100	12.7	26.1	GI50 (DMS 114 small cell lung): 25.7 µM; TGI (DMS 114 small cell lung): > 72.8 µM; GI50 (KM20L2 colon): > 100 µM; GI50 (M19-MEL melanoma): 53.2 µM; TGI (M19-MEL melanoma): > 100 µM; GI50 (MDA-N): > 100 µM; TGI (MDA-N): > 100 µM
CCCCCC[C@H](C)NC(=O)c1ccc(Nc2nc3ccccc3c3occc23)cc1	–	2.9	15.3	5.36	> 100	1.2	6.31	–
Cc1cc(Cl)ccc1NC(=O)C(=O)C(C(=O)c1ccccc1)C1OC(=O)c2ccccc21 (stereo not drawn)	> 100 µM	–	–	–	–	–	–	TGI (DMS 114 small cell lung): > 100 µM; TGI (M19-MEL melanoma): > 100 µM; TGI (SNB-78 CNS): > 100 µM
C=C1C(=O)O[C@H]2[C@H]1CC/C(COC(=O)NCCCCCCCCNC(=O)OC/C1=C/CC[C@@]3(C)O[C@H]3[C@H]3OC(=O)C(=C)[C@@H]3CC1)=C\CC[C@@]1(C)O[C@@H]21	–	0.241	0.686	0.385	1.63	0.323	0.915	–
C#Cc1cccc(NC(=O)c2ccc(NC(=O)CCl)cc2)c1	–	43.8	> 82.5	15.4	60.4	31.2	> 82.5	–
CC(C)C1N2CCCCC2[C@@H]2c3[nH]c4ccccc4c3CCN12 (stereo partly drawn)	> 100 µM	–	–	–	–	–	–	TGI (DMS 114 small cell lung): > 100 µM; TGI (M19-MEL melanoma): > 100 µM; TGI (SNB-78 CNS): > 100 µM
FC(F)(F)c1cc(Nc2ccc3cc(OCCCN4CCOCC4)ccc3n2)ccc1Cl	–	1.75	3.61	1.09	2.68	2.51	7.51	–
CCN(Cc1ccc(F)cc1)c1ccc(CO)c(OC)c1	–	25.7	> 100	13.3	33.9	6.32	33.4	–
CCOCc1cc(=O)c2c(OC)cc3c(c2o1)CCC(C)(C)O3	> 100 µM	–	–	–	–	–	–	TGI (M19-MEL melanoma): > 100 µM; TGI (SNB-78 CNS): > 100 µM
COCc1c(-c2ccc(NC(=O)Nc3cc(C(F)(F)F)ccc3F)c(F)c2)c2c(N)ncnn2c1CN1CCOCC1	–	1.93	> 10	2.88	> 10	2.14	9.95	–
COc1ccc(N(C)c2nc(Cl)nc3cnn(C)c23)cc1	–	–	–	< 0.01	> 100	< 0.01	> 100	–
Cc1ccc(S(=O)(=O)Nc2ccc(-c3cc(-c4cccc(F)c4)c(C#N)c(N)n3)cc2)cc1	–	2.02	4.46	2.19	7.56	1.48	3.66	–
N#CC1C(=O)NC(c2ccccc2[N+](=O)[O-])c2sc3c(F)cccc3c21 (stereo not drawn)	–	23.2	> 83.9	12.4	73	0.241	20.7	–
Nc1ncnc2c1ccn2[C@@H]1O[C@H]([C@H](O)c2ccc(Cl)c(F)c2)[C@@H](O)[C@H]1O	–	> 100	> 100	> 100	> 100	23.5	> 100	–
C/C(=N/N=C(N)N)c1ccc(NC(=O)Nc2ccc(/C(C)=N/N=C(N)N)cc2)cc1	–	16	> 83.8	14.4	46.9	8.29	34.6	–
O=C1NC(c2cccc(OCc3ccccc3)c2)Nc2ccccc21 (stereo not drawn)	–	–	–	–	–	–	> 90.1	–

SMILES	TGI (KM20L2 colon)	GI50 (MDA-MB-435) [µM]	TGI (MDA-MB-435) [µM]	GI50 (PC-3 prostate) [µM]	TGI (PC-3 prostate) [µM]	GI50 (T-47D breast) [µM]	TGI (T-47D breast) [µM]	further results
Cc1nccc2c3ccc(OCc4cn(-c5ccc(Cl)cc5)nn4)cc3n(CC(C)C)c12	–	3.38	> 33.3	1.52	> 33.3	1.34	11.3	–
Cc1ccc(NC(=O)OCC(COc2ccc(Cl)cc2Cl)OC(=O)Nc2ccc(C)cc2)cc1 (stereo not drawn)	> 100 µM	–	–	–	–	–	–	TGI (DMS 114 small cell lung): > 100 µM; TGI (M19-MEL melanoma): > 100 µM; TGI (SNB-78 CNS): > 100 µM
CCOP1(=O)C=C(C)C(=C(Cl)Cl)C(C)=C1 (stereo not drawn)	6.76 µM and 65.3 µM	–	–	–	–	–	–	GI50 (KM20L2 colon): 4.53 µM; GI50 (M19-MEL melanoma): 12.9 µM; TGI (M19-MEL melanoma): 36.3 µM; GI50 (RXF-631 renal): 20.4 µM; TGI (RXF-631 renal): 64.5 µM
Cn1c2ccccc2c2c(=O)n(CCCC(=O)OC(=NC3CCCCC3)NC3CCCCC3)c3c(-c4ccccc4)nnn3c21	–	> 100	> 100	> 100	> 100	55.8	> 100	–
CCN(CC)CCn1c2ccccc2c(=O)c2c(OC)ccc(OC)c21	> 100 µM	–	–	–	–	–	–	TGI (M19-MEL melanoma): > 100 µM; TGI (SNB-78 CNS): > 100 µM
O=c1c(Cl)cc2nc3ccccc3sc-2c1Cl	–	–	7.8	–	–	–	> 100	–
C1C[OH+]CC[OH+]CCNCC[OH+]CC[OH+]CCN1.Cl.[Cl-].[Pt+4]	> 100 µM	–	–	–	–	–	–	GI50 (KM20L2 colon): > 100 µM
CCCCCCCC(=O)[O][Hg][CH2]C1COC([CH2][Hg][O]C(=O)CCCCCCC)CO1 (stereo not drawn)	–	12.9	25.8	13.7	26.7	13.1	46.9	GI50 (MDA-N): 15.6 µM; TGI (MDA-N): 30 µM
COC(=O)[C@]12CC[C@@H](C)[C@H](C)[C@@H]1C1=CC[C@@H]3[C@@]4(C)C(C=O)=C[C@@](C)(COC(=O)/C=C/c5ccccc5)[C@@H]4[C@H](O)C[C@@]3(C)[C@]1(C)CC2	–	3.04	10.3	2.22	> 100	4.4	84.1	–
O=[N+]([O-])c1ccc(Sc2ccncn2)c([N+](=O)[O-])c1	–	2.5	8.56	3.98	15.7	1.94	4.41	–
COc1cccc(Nc2nccc(-c3cnn4ncccc34)n2)c1	–	0.0609	0.25	0.0652	1.32	0.0776	0.428	–
COC[C@H](C)N=CN1CCc2ccccc2C1(Cc1ccccc1)Cc1ccccc1	24.7 µM	–	–	–	–	–	–	TGI (RXF-631 renal): 34.9 µM
COc1ccc2nc(NC(=O)C(=O)NNC(=O)c3ccncc3)sc2c1	> 100 µM	–	–	–	–	–	–	TGI (DMS 114 small cell lung): > 100 µM; TGI (M19-MEL melanoma): > 100 µM; TGI (SNB-78 CNS): > 100 µM
CSc1ccc(C(=O)/C=C/c2ccccc2Cl)cc1	–	12.4	30.2	16.5	32.4	23.5	> 100	–
COc1cc(/C=C2\C[C@H]3[C@@H]4CC=C5C[C@@H](OC(C)=O)CC[C@]5(C)[C@H]4CC[C@]3(C)[C@H]2OC(C)=O)ccc1OCCN1CCCC1	–	13.3	27.2	8	20.4	12.4	32	–
